Laboratory results from patent US20240216401A1, “COMBINATION THERAPY BY USING AKR1C3-ACTIVATED COMPOUND WITH IMMUNE CHECKPOINT INHIBITOR” (OBI Pharma, Inc., priority 2021, published 2024).
Where “and” joins values, the source holds several entries; their conditions need not be identical. Equal entries are not always repeated.

Key:
[1] = test system: T helper (TH) cells (CD45^+CD4^+ T cells) in tumor-infiltrating lymphocytes; assay: Example 2: flow cytometry, percentage of TH cells in TILs; type: in vivo, Mus musculus
Procedure: (§1) Mice were sacrificed by CO2 euthanasia at the end of the study duration, and the connective tissue around tumor was resected. The tumor samples were then weighed and cut equally into three sections if the tumor weight over 400 mg. The tumor tissue was prepared for the isolation of tumor-infiltrating lymphocytes (TILs). The rest of one section was fixed in 10% formaldehyde and embedded in paraffin; the other was stored at a temperature below −70° C.
(§2) The tumor samples were dissected into smaller fragments using scalpels and then digested with a cocktail of collagenase, DNase I, and Hyaluronidase (Collagenase #C5138, DNase I #D5025, Hyaluronidase #H6254, SigmaAldrich) for at least 2 hours.
(§3) Cells were stained with the fluorescently conjugated surface antibodies and incubated for 30 minutes at 4° C., and then resuspended in staining buffer for flow cytometric analysis. Flow cytometry was done using a Navios EX Flow Cytometer (Beckman Coulter). Data were analyzed using the Kaluza Analysis Software (Beckman Coulter).

[2] = test system: CTL cells (CD45^+CD8^+ T cells) in tumor-infiltrating lymphocytes; assay: Example 2: flow cytometry, percentage of CTL cells in TILs; type: in vivo, Mus musculus
Procedure: as §1, §2, §3

[3] = G2: OBI-3424 (0.3 mg/kg), group Mean
[4] = G2: OBI-3424 (0.3 mg/kg), individual animals, 0.3 mg/kg
[5] = G3: OBI-3424 (1 mg/kg), group Mean
[6] = G3: OBI-3424 (1 mg/kg), individual animals, 1 mg/kg

C[C@H](OP(=O)(N1CC1)N1CC1)c1ccc([N+](=O)[O-])c(Oc2cccc(C(=O)N(C)C)c2)c1 [OBI-3424, (S)-1-(3-(3-N,N-dimethylaminocarbonyl)phenoxyl-4-mtrophenyl)-1-ethyl-N,N′-bis(ethylene)phosphoramidate]
TH cells (CD45^+CD4^+ T cells) in TILs ([1]; Example 2, mean±SEM, OBI-3424 1 mg/kg, alone (G3) or with anti-hPD-1 (G6)): 25.05±2.08% | CD25^+ TH cells (CD45^+CD4^+ CD25^+) Total % [1, 3]: 2.46% | CD25^+ TH cells (CD45^+CD4^+CD25^+) Cell count (×10^5) [1, 3]: 4.93 ×10^5 | CD25^+ TH cells (CD45^+CD4^+CD25^+) TH Gated % [1, 3]: 18.22% | CD69^+ TH cells (CD45^+CD4^+CD69^+) Cell count (×10^5) [1, 3]: 13.89 ×10^5 | CD69^+ TH cells (CD45^+CD4^+CD69^+) TH Gated % [1, 3]: 60.13% | CD69^+ TH cells (CD45^+CD4^+CD69^+) Total % [1, 3]: 8.46% | Foxp3^+ Treg cells (CD45^+CD4^+CD25^+Foxp3^+) Cell count (×10^5) [1, 3]: 0.24 ×10^5 | Foxp3^+ Treg cells (CD45^+CD4^+CD25^+Foxp3^+) TH Gated % [1, 3]: 5.27% | Foxp3^+ Treg cells (CD45^+CD4^+CD25^+Foxp3^+) Total % [1, 3]: 0.12% | PD-1^+ TH cells (CD45^+CD4^+ PD-1^+) Cell count (×10^5) [1, 3]: 20.36 ×10^5 | PD-1^+ TH cells (CD45^+CD4^+ PD-1^+) TH Gated % [1, 3]: 93.96% | PD-1^+ TH cells (CD45^+CD4^+ PD-1^+) Total % [1, 3]: 12.11% | TH cells (CD45^+CD4^+) CD45^+ Gated % [1, 3]: 33.51% | TH cells (CD45^+CD4^+) Cell count (×10^5) [1, 3]: 21.50 ×10^5 | TH cells (CD45^+CD4^+) Total % [1, 3]: 12.88% | CD25^+ TH cells (CD45^+CD4^+ CD25^+) Total % [1, 4]: 1.65% and 2.12% and 4.23% and 2.84% | CD25^+ TH cells (CD45^+CD4^+CD25^+) Cell count (×10^5) [1, 4]: 4.34 ×10^5 and 3.39 ×10^5 and 8.91 ×10^5 and 0.45 ×10^5 and 10.43 ×10^5 and 2.06 ×10^5 | CD25^+ TH cells (CD45^+CD4^+CD25^+) TH Gated % [1, 4]: 18.38% and 17.49% and 18.21% and 10.15% and 30.45% and 14.61% | CD69^+ TH cells (CD45^+CD4^+CD69^+) Cell count (×10^5) [1, 4]: 14.86 ×10^5 and 13.89 ×10^5 and 28.08 ×10^5 and 3.35 ×10^5 and 16.93 ×10^5 and 6.24 ×10^5 | CD69^+ TH cells (CD45^+CD4^+CD69^+) TH Gated % [1, 4]: 63.07% and 71.55% and 57.32% and 49.45% and 44.32% | CD69^+ TH cells (CD45^+CD4^+CD69^+) Total % [1, 4]: 7.64% and 6.79% and 5.20% and 15.65% and 6.87% and 8.60% | Foxp3^+ Treg cells (CD45^+CD4^+CD25^+Foxp3^+) Cell count (×10^5) [1, 4]: 0.21 ×10^5 and 0.27 ×10^5 and 0.43 ×10^5 and 0.03 ×10^5 and 0.39 ×10^5 and 0.08 ×10^5 | Foxp3^+ Treg cells (CD45^+CD4^+CD25^+Foxp3^+) TH Gated % [1, 4]: 5.03% and 7.95% and 5.08% and 6.05% and 3.69% and 3.81% | Foxp3^+ Treg cells (CD45^+CD4^+CD25^+Foxp3^+) Total % [1, 4]: 0.11% (2×) and 0.13% (2×) and 0.08% and 0.16% | PD-1^+ TH cells (CD45^+CD4^+ PD-1^+) Cell count (×10^5) [1, 4]: 21.12 ×10^5 and 16.11 ×10^5 and 38.56 ×10^5 and 4.30 ×10^5 and 32.19 ×10^5 and 9.90 ×10^5 | PD-1^+ TH cells (CD45^+CD4^+ PD-1^+) TH Gated % [1, 4]: 98.48% and 81.16% and 94.89% and 90.86% and 99.60% and 98.76% | PD-1^+ TH cells (CD45^+CD4^+ PD-1^+) Total % [1, 4]: 10.86% and 7.88% and 7.14% and 20.09% and 13.06% and 13.65% | TH cells (CD45^+CD4^+) CD45^+ Gated % [1, 4]: 59.01% and 26.17% and 17.42% and 32.52% and 29.44% and 36.50% | TH cells (CD45^+CD4^+) Cell count (×10^5) [1, 4]: 21.45 ×10^5 and 19.84 ×10^5 and 40.61 ×10^5 and 4.73 ×10^5 and 32.34 ×10^5 and 10.02 ×10^5 | TH cells (CD45^+CD4^+) Total % [1, 4]: 11.03% and 9.70% and 7.52% and 22.11% and 13.12% and 13.82% | CD25^+ TH cells (CD45^+CD4^+ CD25^+) Total % [1, 5]: 3.32% | CD25^+ TH cells (CD45^+CD4^+CD25^+) Cell count (×10^5) [1, 5]: 2.83 ×10^5 | CD25^+ TH cells (CD45^+CD4^+CD25^+) TH Gated % [1, 5]: 13.39% | CD69^+ TH cells (CD45^+CD4^+CD69^+) Cell count (×10^5) [1, 5]: 12.24 ×10^5 | CD69^+ TH cells (CD45^+CD4^+CD69^+) TH Gated % [1, 5]: 61.30% | CD69^+ TH cells (CD45^+CD4^+CD69^+) Total % [1, 5]: 15.55% | Foxp3^+ Treg cells (CD45^+CD4^+CD25^+Foxp3^+) Cell count (×10^5) [1, 5]: 0.07 ×10^5 | Foxp3^+ Treg cells (CD45^+CD4^+CD25^+Foxp3^+) TH Gated % [1, 5]: 3.04% | Foxp3^+ Treg cells (CD45^+CD4^+CD25^+Foxp3^+) Total % [1, 5]: 0.09% | PD-1^+ TH cells (CD45^+CD4^+ PD-1^+) Cell count (×10^5) [1, 5]: 19.54 ×10^5 | PD-1^+ TH cells (CD45^+CD4^+ PD-1^+) TH Gated % [1, 5]: 97.01% | PD-1^+ TH cells (CD45^+CD4^+ PD-1^+) Total % [1, 5]: 24.35% | TH cells (CD45^+CD4^+) CD45^+ Gated % [1, 5]: 41.85% | TH cells (CD45^+CD4^+) Cell count (×10^5) [1, 5]: 20.13 ×10^5 | TH cells (CD45^+CD4^+) Total % [1, 5]: 25.05% | CD25^+ TH cells (CD45^+CD4^+ CD25^+) Total % [1, 6]: 1.46% and 2.88% and 2.69% and 5.06% and 4.55% and 3.26% | CD25^+ TH cells (CD45^+CD4^+CD25^+) Cell count (×10^5) [1, 6]: 0.42 ×10^5 and 3.63 ×10^5 and 1.90 ×10^5 and 5.00 ×10^5 and 3.39 ×10^5 and 2.64 ×10^5 | CD25^+ TH cells (CD45^+CD4^+CD25^+) TH Gated % [1, 6]: 5.51% and 11.47% and 14.05% and 20.81% and 18.53% and 9.97% | CD69^+ TH cells (CD45^+CD4^+CD69^+) Cell count (×10^5) [1, 6]: 4.74 ×10^5 and 19.21 ×10^5 and 9.19 ×10^5 and 10.91 ×10^5 and 12.59 ×10^5 and 16.82 ×10^5 | CD69^+ TH cells (CD45^+CD4^+CD69^+) TH Gated % [1, 6]: 61.50% and 60.62% and 67.91% and 45.46% and 68.87% and 63.43% | CD69^+ TH cells (CD45^+CD4^+CD69^+) Total % [1, 6]: 16.35% and 15.22% and 13.01% and 11.04% and 16.92% and 20.76% | Foxp3^+ Treg cells (CD45^+CD4^+CD25^+Foxp3^+) Cell count (×10^5) [1, 6]: 0.02 ×10^5 and 0.08 ×10^5 and 0.07 ×10^5 and 0.12 ×10^5 and 0.04 ×10^5 and 0.11 ×10^5 | Foxp3^+ Treg cells (CD45^+CD4^+CD25^+Foxp3^+) TH Gated % [1, 6]: 4.64% and 2.22% and 3.57% and 2.45% and 1.41% and 3.92% | Foxp3^+ Treg cells (CD45^+CD4^+CD25^+Foxp3^+) Total % [1, 6]: 0.07% and 0.06% (2×) and 0.10% and 0.12% and 0.13% | PD-1^+ TH cells (CD45^+CD4^+ PD-1^+) Cell count (×10^5) [1, 6]: 7.02 ×10^5 and 29.44 ×10^5 and 11.76 ×10^5 and 23.76 ×10^5 and 18.24 ×10^5 and 27.01 ×10^5 | PD-1^+ TH cells (CD45^+CD4^+ PD-1^+) TH Gated % [1, 6]: 96.86% and 94.38% and 95.57% and 98.57% and 97.07% and 99.62% | PD-1^+ TH cells (CD45^+CD4^+ PD-1^+) Total % [1, 6]: 24.22% and 23.33% and 16.66% and 24.05% and 24.52% and 33.34% | TH cells (CD45^+CD4^+) CD45^+ Gated % [1, 6]: 37.76% and 41.33% and 35.50% and 40.55% and 38.34% and 57.62% | TH cells (CD45^+CD4^+) Cell count (×10^5) [1, 6]: 7.25 ×10^5 and 31.20 ×10^5 and 12.31 ×10^5 and 24.11 ×10^5 and 18.79 ×10^5 and 27.11 ×10^5 | TH cells (CD45^+CD4^+) Total % [1, 6]: 25.00% and 24.72% and 17.44% and 24.40% and 25.26% and 33.47% | CTL cells (CD45^+CD8^+ T cells) in TILs ([2]; Example 2, mean±SEM, OBI-3424 1 mg/kg, alone (G3) or with anti-hPD-1 (G6), vehicle 15.53±5.66%): 33.50±3.38% | CD25^+ CTL cells (CD45^+ CD8^+CD25^+) Cell count (×10^5) ([2]; G2: 0.3 mg/kg, group mean): 2.93 ×10^5 | CD25^+ CTL cells (CD45^+CD8^+ CD25^+) CTL Gated % ([2]; G2: 0.3 mg/kg, group mean): 5.60% | CD25^+ CTL cells (CD45^+CD8^+ CD25^+) Total % ([2]; G2: 0.3 mg/kg, group mean): 1.33% | CD69^+ CTL cells (CD45^+ CD8^+CD69^+) CTL Gated % ([2]; G2: 0.3 mg/kg, group mean): 69.71% | CD69^+ CTL cells (CD45^+ CD8^+CD69^+) Cell count (×10^5) ([2]; G2: 0.3 mg/kg, group mean): 40.97 ×10^5
